For 33 molecules, Ki results are on record in US8410112B2, “Compounds useful as inhibitors of ATR kinase” (Vertex Pharmaceuticals Incorporated, priority 2008, dated 2013).

Structures are written as SMILES.

The target in this experiment is T1, full-length ATR (Homo sapiens, UniProt Q13535).
T1 construct: in the presence of 5 nM full-length ATR
T1 sequence (Q13535 whole entry): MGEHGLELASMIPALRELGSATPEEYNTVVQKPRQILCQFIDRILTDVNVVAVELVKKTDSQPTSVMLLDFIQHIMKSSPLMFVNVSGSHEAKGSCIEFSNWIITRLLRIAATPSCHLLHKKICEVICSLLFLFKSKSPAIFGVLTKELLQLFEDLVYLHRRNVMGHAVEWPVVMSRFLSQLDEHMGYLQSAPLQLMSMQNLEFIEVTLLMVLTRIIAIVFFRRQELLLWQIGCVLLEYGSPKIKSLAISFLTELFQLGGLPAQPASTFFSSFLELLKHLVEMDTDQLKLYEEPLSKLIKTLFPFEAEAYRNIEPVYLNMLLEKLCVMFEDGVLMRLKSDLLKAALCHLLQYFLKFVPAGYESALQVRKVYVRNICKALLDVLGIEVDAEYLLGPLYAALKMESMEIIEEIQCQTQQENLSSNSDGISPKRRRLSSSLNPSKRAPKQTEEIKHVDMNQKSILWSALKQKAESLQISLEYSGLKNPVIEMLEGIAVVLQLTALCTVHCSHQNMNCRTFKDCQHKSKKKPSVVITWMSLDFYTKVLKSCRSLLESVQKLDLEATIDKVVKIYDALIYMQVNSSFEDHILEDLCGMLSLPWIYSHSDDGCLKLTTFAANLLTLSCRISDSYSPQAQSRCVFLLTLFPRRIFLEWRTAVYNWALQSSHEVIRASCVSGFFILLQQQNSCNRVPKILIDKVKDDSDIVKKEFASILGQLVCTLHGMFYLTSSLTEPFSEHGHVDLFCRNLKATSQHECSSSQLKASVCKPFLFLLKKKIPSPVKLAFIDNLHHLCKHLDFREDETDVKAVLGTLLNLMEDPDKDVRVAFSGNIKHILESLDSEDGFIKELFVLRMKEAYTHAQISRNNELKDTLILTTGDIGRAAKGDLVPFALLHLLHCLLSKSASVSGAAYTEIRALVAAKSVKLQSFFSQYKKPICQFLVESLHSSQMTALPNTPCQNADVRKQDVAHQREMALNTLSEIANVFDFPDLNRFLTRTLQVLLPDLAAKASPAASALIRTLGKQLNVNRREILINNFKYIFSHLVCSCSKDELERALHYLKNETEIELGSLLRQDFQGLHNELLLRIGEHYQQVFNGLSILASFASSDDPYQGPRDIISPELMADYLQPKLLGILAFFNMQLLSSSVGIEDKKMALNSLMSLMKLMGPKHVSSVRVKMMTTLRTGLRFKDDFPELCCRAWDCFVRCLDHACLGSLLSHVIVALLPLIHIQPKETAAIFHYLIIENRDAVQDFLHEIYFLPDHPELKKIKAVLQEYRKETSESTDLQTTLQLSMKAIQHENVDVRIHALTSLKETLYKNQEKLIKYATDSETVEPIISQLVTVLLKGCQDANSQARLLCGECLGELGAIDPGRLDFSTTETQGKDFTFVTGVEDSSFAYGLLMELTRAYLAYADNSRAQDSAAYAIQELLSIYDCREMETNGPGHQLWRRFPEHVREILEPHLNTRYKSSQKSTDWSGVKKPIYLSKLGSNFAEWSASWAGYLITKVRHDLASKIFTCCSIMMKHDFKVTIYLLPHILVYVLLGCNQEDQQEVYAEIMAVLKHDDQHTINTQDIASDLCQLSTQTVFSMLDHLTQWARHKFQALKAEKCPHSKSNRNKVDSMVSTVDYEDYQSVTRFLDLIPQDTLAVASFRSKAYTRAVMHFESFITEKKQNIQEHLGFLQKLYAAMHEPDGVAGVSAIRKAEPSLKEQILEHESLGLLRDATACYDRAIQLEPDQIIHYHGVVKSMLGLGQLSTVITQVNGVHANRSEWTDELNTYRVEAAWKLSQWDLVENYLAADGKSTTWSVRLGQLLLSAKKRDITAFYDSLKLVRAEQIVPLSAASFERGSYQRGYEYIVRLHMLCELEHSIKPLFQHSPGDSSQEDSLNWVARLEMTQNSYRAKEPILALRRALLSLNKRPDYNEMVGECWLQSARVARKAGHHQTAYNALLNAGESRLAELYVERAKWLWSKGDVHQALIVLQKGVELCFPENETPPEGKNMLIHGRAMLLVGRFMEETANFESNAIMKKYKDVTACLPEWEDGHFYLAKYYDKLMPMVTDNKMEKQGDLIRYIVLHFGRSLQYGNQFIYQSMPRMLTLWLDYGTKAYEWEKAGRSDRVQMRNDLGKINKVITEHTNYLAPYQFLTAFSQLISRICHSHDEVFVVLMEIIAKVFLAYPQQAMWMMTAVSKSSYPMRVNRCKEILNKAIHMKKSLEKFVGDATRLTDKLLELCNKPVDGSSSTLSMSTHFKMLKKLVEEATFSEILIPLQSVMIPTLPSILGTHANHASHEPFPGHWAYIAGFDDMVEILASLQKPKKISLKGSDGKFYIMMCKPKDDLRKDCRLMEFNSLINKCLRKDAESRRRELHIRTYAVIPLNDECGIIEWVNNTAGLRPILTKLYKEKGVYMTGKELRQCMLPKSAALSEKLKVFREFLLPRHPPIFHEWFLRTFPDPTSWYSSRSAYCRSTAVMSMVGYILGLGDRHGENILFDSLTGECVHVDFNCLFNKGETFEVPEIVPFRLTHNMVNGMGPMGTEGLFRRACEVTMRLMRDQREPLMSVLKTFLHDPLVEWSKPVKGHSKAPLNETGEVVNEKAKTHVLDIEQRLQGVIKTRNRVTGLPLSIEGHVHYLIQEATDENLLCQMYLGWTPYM
Put plainly: ATR Inhibition Assay (radioactive-phosphate incorporation). The experiment is classed as biochemical. The note with it: Ki(app); 5 nM full-length ATR, 10 μM ATP, 800 μM target peptide, 25° C. In outline:
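Buffer was 50 mM Tris/HCl pH 7.5, 10 mM MgCl2, 1 mM DTT, with 5 nM enzyme, 10 μM [γ-33P]ATP and 800 μM target peptide at 25 °C. Compound was pre-incubated 10 min before ATP start, and the reaction was stopped after 24 h. Phosphocellulose filter capture; Ki(app) came from non-linear regression of background-corrected initial rates.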
On to `Nc1ncc(C2=CCNCC2)nc1-c1nnc(-c2ccccc2)o1` [Compound I-41, 3-(5-phenyl-1,3,4-oxadiazol-2-yl)-5-(1,2,3,6-tetrahydropyridin-4-yl)pyrazin-2-amine], for which the Ki was 100 to 1000 nM.
In the case of `CCS(=O)(=O)N1CCN(c2cnc(N)c(-c3nc4ccc(C)cc4[nH]3)n2)CC1` [Compound I-6, 5-(4-(ethylsulfonyl)piperazin-1-yl)-3-(6-methyl-1H-benzo[d]imidazol-2-yl)pyrazin-2-amine], the Ki is 100 to 1000 nM.
Turning to `Nc1ncc(N2CCN(C(=O)N3CCCC3)CC2)nc1C(=O)Nc1ccccn1` [Compound I-239, 3-amino-N-(pyridin-2-yl)-6-(4-(pyrrolidine-1-carbonyl)piperazin-1-yl)pyrazine-2-carboxamide], the Ki fell in the range of 1000 to 10000 nM.
Consider `CC(=O)N[C@H]1CCN(c2cnc(N)c(-c3nc4ccccc4[nH]3)n2)C1` [Compound I-185, (S)-N-(1-(5-amino-6-(1H-benzo[d]imidazol-2-yl)pyrazin-2-yl)pyrrolidin-3-yl)ethanamide], for which the Ki fell in the range of 100 to 1000 nM.
Consider `CNCc1ccc(-c2nnc(-c3nc(N4C[C@@H]5C(C(=O)O)[C@@H]5C4)cnc3N)o2)cc1` (stereo partly drawn) [Compound I-349, (1R,5S)-3-[5-Amino-6-[5-[4-(methylaminomethyl)phenyl]-1,3,4-oxadiazol-2-yl]pyrazin-2-yl]-3-azabicyclo[3.1.0]hexane-6-carboxylic acid], for which the Ki is 100 to 1000 nM.
Turning to `CCCS(=O)(=O)N1CC=C(c2cnc(N)c(-c3nc4ccccc4[nH]3)n2)CC1` [Compound I-291, 3-(1H-benzimidazol-2-yl)-5-(1-propylsulfonyl-3,6-dihydro-2H-pyridin-4-yl)pyrazin-2-amine], the Ki is less than 100 nM.
For `Nc1ncc(C2=CCN(C(=O)C3CC3)CC2)nc1-c1nc2ccccc2[nH]1` [Compound I-284, [4-[5-amino-6-(1H-benzimidazol-2-yl)pyrazin-2-yl]-3,6-dihydro-2H-pyridin-1-yl]-cyclopropyl-methanone], the Ki is less than 100 nM.
For the molecule `Cc1ccc2nc(-c3nc(N4CCN(c5ccccc5F)CC4)cnc3N)[nH]c2c1` [Compound I-45, 5-(4-(2-fluorophenyl)piperazin-1-yl)-3-(6-methyl-1H-benzo[d]imidazol-2-yl)pyrazin-2-amine], the Ki was 1000 to 10000 nM.
With `CCS(=O)(=O)N1CCN(c2cnc(N)c(-c3nnc(-c4ccccc4F)o3)n2)CC1` [Compound I-299, 5-(4-ethylsulfonylpiperazin-1-yl)-3-[5-(2-fluorophenyl)-1,3,4-oxadiazol-2-yl]pyrazin-2-amine], the Ki is 100 to 1000 nM.
Take `Nc1ncc(N2CCN(C(=O)c3ccccn3)CC2)nc1-c1nnc(-c2ccccc2)o1` [Compound I-187, (4-(5-amino-6-(5-phenyl-1,3,4-oxadiazol-2-yl)pyrazin-2-yl)piperazin-1-yl)(pyridin-2-yl)methanone]: the Ki is 100 to 1000 nM.
With `Nc1ncc(N2CCN(S(=O)(=O)c3cccs3)CC2)nc1-c1nnc(-c2ccccc2)o1` [Compound I-96, 3-(5-phenyl-1,3,4-oxadiazol-2-yl)-5-(4-(thiophen-2-ylsulfonyl)piperazin-1-yl)pyrazin-2-amine], the Ki was in the range of 100 to 1000 nM.
Regarding `CN(C)C1CCN(C(=O)N2CC=C(c3cnc(N)c(-c4nc5ccccc5[nH]4)n3)CC2)CC1` [Compound I-173, (4-(5-amino-6-(1H-benzo[d]imidazol-2-yl)pyrazin-2-yl)-5,6-dihydropyridin-1(2H)-yl)(4-(dimethylamino)piperidin-1-yl)methanone], the Ki was 100 to 1000 nM.
`Nc1ncc(N2CCN(C(=O)C3CCCCC3)CC2)nc1-c1nnc(-c2ccccc2)o1` [Compound I-251, (4-(5-amino-6-(5-phenyl-1,3,4-oxadiazol-2-yl)pyrazin-2-yl)piperazin-1-yl)(cyclohexyl)methanone]: the Ki fell in the range of 100 to 1000 nM.
In the case of `Cn1cnc(S(=O)(=O)N2CCN(c3cnc(N)c(-c4nc5ccccc5[nH]4)n3)CC2)c1` [Compound I-91, 3-(1H-benzo[d]imidazol-2-yl)-5-(4-(1-methyl-1H-imidazol-4-ylsulfonyl)piperazin-1-yl)pyrazin-2-amine] it was 100 to 1000 nM; in that of `Nc1ncc(N2C[C@@H]3CCC(O)[C@@H]3C2)nc1-c1nnc(-c2ccccc2)o1` (stereo in doubt) [Compound I-318, (3aR,6aS)-2-[5-Amino-6-(5-phenyl-1,3,4-oxadiazol-2-yl)pyrazin-2-yl]-3,3a,4,5,6,6a-hexahydro-1H-cyclopenta[c]pyrrol-6-ol], less than 100 nM.
Turning to `Nc1ncc(N2CCN(C(=O)OCc3ccccc3)CC2)nc1C(=O)Nc1ccccn1` [Compound I-260, benzyl 4-(5-amino-6-(pyridin-2-ylcarbamoyl)pyrazin-2-yl)piperazine-1-carboxylate], the Ki was in the range of 1000 to 10000 nM.
For the molecule `CNCc1ccc(-c2nnc(-c3nc(N4CC[C@H](CNC(C)=O)C4)cnc3N)o2)cc1` [Compound I-317, N-[[(3R)-1-[5-Amino-6-[5-[4-(methylaminomethyl)phenyl]-1,3,4-oxadiazol-2-yl]pyrazin-2-yl]pyrrolidin-3-yl]methyl]acetamide], the Ki is less than 100 nM.
As for `Nc1ncc(N2CCN(C(=O)Cc3ccccc3)CC2)nc1-c1nnc(-c2ccccc2)o1` [Compound I-197, 1-(4-(5-amino-6-(5-phenyl-1,3,4-oxadiazol-2-yl)pyrazin-2-yl)piperazin-1-yl)-2-phenylethanone], the Ki was 100 to 1000 nM.
In the case of `CCC(=O)NC1CC[C@H]2CN(c3cnc(N)c(-c4nnc(-c5ccc(CNC)cc5)o4)n3)C[C@@H]12` (stereo partly drawn) [Compound I-355, N-((3aS,6aR)-2-(5-Amino-6-(5-(4-((methylamino)methyl)phenyl)-1,3,4-oxadiazol-2-yl)pyrazin-2-yl)octahydrocyclopenta[c]pyrrol-4-yl)propionamide] it was 100 to 1000 nM; in that of `CC(=O)N1CCN(c2cnc(N)c(C(=O)Nc3ccccn3)n2)CC1` [Compound I-142, 3-amino-6-(4-ethanoylpiperazin-1-yl)-N-(pyridin-2-yl)pyrazine-2-carboxamide], 1000 to 10000 nM.
Next, `CS(=O)(=O)N1CCN(c2cnc(N)c(-c3nc4ccccc4[nH]3)n2)CC1` [Compound I-86, 3-(1H-benzo[d]imidazol-2-yl)-5-(4-(methylsulfonyl)piperazin-1-yl)pyrazin-2-amine]: 100 to 1000 nM; `CNCc1ccc(-c2nnc(-c3nc(N4CCC[C@H]4CO)cnc3N)o2)cc1` [Compound I-352, [(2S)-1-[5-Amino-6-[5-[4-(methylaminomethyl)phenyl]-1,3,4-oxadiazol-2-yl]pyrazin-2-yl]pyrrolidin-2-yl]methanol]: 100 to 1000 nM; `Nc1ncc(C2=CCN(C(=O)Cc3ccccc3)CC2)nc1-c1nnc(-c2ccccc2)o1` [Compound I-201, 1-(4-(5-amino-6-(5-phenyl-1,3,4-oxadiazol-2-yl)pyrazin-2-yl)-5,6-dihydropyridin-1(2H)-yl)-2-phenylethanone]: less than 100 nM.
Take `CCS(=O)(=O)N1CCN(c2cnc(N)c(C(=O)/C=C/c3ccccc3)n2)CC1` [Compound I-73, (E)-1-(3-amino-6-(4-(ethylsulfonyl)piperazin-1-yl)pyrazin-2-yl)-3-phenylprop-2-en-1-one]: the Ki lay in the range of 1000 to 10000 nM.
In the case of `CCC(CC)C(=O)N1CCN(c2cnc(N)c(-c3nc4ccccc4[nH]3)n2)CC1` [Compound I-175, 1-(4-(5-amino-6-(1H-benzo[d]imidazol-2-yl)pyrazin-2-yl)piperazin-1-yl)-2-ethylbutan-1-one] it was 1000 to 10000 nM.
With `Nc1ncc(N2CCN(C(=O)N3CCCCC3)CC2)nc1-c1nnc(-c2ccccc2)o1` [Compound I-231, (4-(5-amino-6-(5-phenyl-1,3,4-oxadiazol-2-yl)pyrazin-2-yl)piperazin-1-yl)(piperidin-1-yl)methanone], the Ki lay within 100 to 1000 nM.
In the case of `CCC(=O)N1CCN(c2cnc(N)c(-c3nnc(-c4ccc(CNC)cc4)o3)n2)C[C@H]1C(C)C` [Compound I-333, 1-[(2R)-4-[5-Amino-6-[5-[4-(methylaminomethyl)phenyl]-1,3,4-oxadiazol-2-yl]pyrazin-2-yl]-2-isopropyl-piperazin-1-yl]propan-1-one] it was 100 to 1000 nM; in that of `CCS(=O)(=O)N1CCN(c2cnc(N)c(-c3cn4ccsc4n3)n2)CC1` [Compound I-62, 5-(4-(ethylsulfonyl)piperazin-1-yl)-3-(imidazo[2,1-b]thiazol-6-yl)pyrazin-2-amine], 1000 to 10000 nM.
Turning to `CNCc1ccc(-c2nnc(-c3nc(N4CC[C@H](OC(=O)NCCOC)C4)cnc3N)o2)cc1` [Compound I-373, [(3S)-1-[5-Amino-6-[5-[4-(methylaminomethyl)phenyl]-1,3,4-oxadiazol-2-yl]pyrazin-2-yl]pyrrolidin-3-yl]N-(2-methoxyethyl)carbamate], the Ki fell in the range of 100 to 1000 nM.
As to `Cc1ccc2nc(-c3nc(C4=CCN(S(=O)(=O)N(C)C)CC4)cnc3N)[nH]c2c1` [Compound I-23, 4-(5-amino-6-(6-methyl-1H-benzo[d]imidazol-2-yl)pyrazin-2-yl)-N,N-dimethyl-5,6-dihydropyridine-1(2H)-sulfonamide], the Ki was less than 100 nM.
In the case of `CCC(=O)N1CC=C(c2cnc(N)c(-c3nnc(-c4ccccc4)o3)n2)CC1` [Compound I-301, 1-[4-[5-amino-6-(5-phenyl-1,3,4-oxadiazol-2-yl)pyrazin-2-yl]-3,6-dihydro-2H-pyridin-1-yl]propan-1-one] it was less than 100 nM; in that of `Nc1ncc(N2CCN(S(=O)(=O)c3ccoc3)CC2)nc1-c1nc2ccccc2[nH]1` [Compound I-269, 3-(1H-benzo[d]imidazol-2-yl)-5-(4-(furan-3-ylsulfonyl)piperazin-1-yl)pyrazin-2-amine], 100 to 1000 nM; in that of `CC#CCOC(=O)N1CCN(c2cnc(N)c(C(=O)Nc3ccccn3)n2)CC1` [Compound I-252, but-2-ynyl 4-(5-amino-6-(pyridin-2-ylcarbamoyl)pyrazin-2-yl)piperazine-1-carboxylate], 1000 to 10000 nM.
